# Data reported in PMC10808720 (Frontiers in Pharmacology, 2024).
# Tests used:
# HAdV5 = test: HAdV-mediated endosome disruption (α-sarcin co-delivery, HPG incorporation); assay type: cell-based, human adenovirus (HAdV5)
# Protocol: A549 cells (2 × 10^4 cells/well) were incubated in DMEM without cysteine or methionine supplemented with 10% dialyzed FBS [DMEM(−)] in black 96-well plates for 1 h prior to infection. Three-fold serial dilutions (0.45 ng–1,000 ng) of HAdV5, or AdV2ts1 were preincubated with cells in the presence of 10-fold IC50 concentration of the compounds obtained in the plaque assay or the same volume of DMSO for positive control for 1 h. The medium was then removed and replaced with 50 μL DMEM(−) containing 0.1 mg/ml α-sarcin (Santa Cruz Biotechnology, Dallas, Texas, USA) and drug mixtures. After 1 h at 37°C, the Click-iT L-homopropargylglycine (HPG) Alexa Fluor 488 Protein Synthesis Assay Kits (Invitrogen) was used to analyse protein synthesis according to the manufacturer’s instructions. The incorporation of the amino acid analogue of methionine HPG containing Alexa Fluor 488 azide was measured using a Typhoon 9410 imager (GE Healthcare Life Sciences) and calculated by subtracting the background level of the control well containing HPG and α-sarcin but not the virus (100% incorporation).
# A549 cells = test: Cytotoxicity assay (AlamarBlue); assay type: cell-based, Human; details: 48 h
# Protocol: The cytotoxicity of the molecules was analyzed using the commercial kit AlamarBlue® (Invitrogen, Ref. DAL1025) according to the manufacturer’s instructions. Briefly, A549 cells were seeded at a density of 5 × 10^3 cells per well in 96-well plates, and decreasing serial dilutions of each molecule were diluted in 100 μL of DMEM starting at 200 μM. The cells were then incubated at 37°C for 48 h following the manufacturer’s protocol. The cytotoxic concentration 50% (CC50) value was obtained using the statistical software GraphPad Prism 6. The assay was performed in duplicate.
# p53/MDM2 complex = assay type: cell-based, Human; details: HAdV5-infected A549 cells; 10-fold IC50; 24 h
# Protocol: A549 cells were seeded at a density of 1.5 × 10^5 cells per well in a 24-well plate at a high density and 3.75 × 10^4 cells per well at a low density. […] The culture medium was then aspirated and washed with 1X with cold PBS. Later, 200 μL RIPA Lysis Buffer (1% v/v NP-40, 20 mM Tris-HCL pH 7.4, 5 mM Sodium Pyrophosphate, 5 mM EDTA) with freshly added proteinase inhibitor cocktail (Thermo Fisher Scientific) was added to each well and swirled to distribute it evenly. Cells were then scraped and collected to incubate them for 30 min on ice and finally centrifuged at 13,000 × g for 5 min at 4°C. […] This assay was performed in triplicate.
# wild-type HAdV5 [1] = test: Nuclear-associated HAdV genomes (qPCR after nuclear isolation); assay type: cell-based, human adenovirus (HAdV5); details: 10-fold IC50; 45 min after synchronized infection; A549
# Protocol: Nuclear delivery of HAdV genomes was assessed using qPCR following nuclear isolation from infected cells. Briefly, 1 × 10^6 A549 cells in 6-well plates were infected either with wild-type HAdV5 at an MOI of 2,000 vp/cell in the presence of a 10-fold IC50 concentration of the compounds obtained in the plaque assay or the same volume of DMSO as the positive control. Forty-five minutes after infection, the A549 cells were trypsinized, collected, and washed twice with PBS. The cell pellet was resuspended in 500 μL of 1×hypotonic buffer (20 mM Tris-HCl pH 7.4, 10 mM NaCl, 3 mM MgCl2) and incubated for 15 min at 4°C. Then, 25 μL of NP-40 was added and the samples were vortexed. The homogenates were centrifuged for 10 min at 835 g at 4°C. Following the removal of the cytoplasmic fraction (supernatant), HAdV DNA was isolated from the nuclear (pellet) and cytoplasmic fractions using the E.Z.N.A.® Tissue DNA Kit (Omega Bio-tek, Norcross, GA).
# wild-type HAdV5 [2] = test: HAdV yield reduction (burst) assay, TCID50 end-point dilution; assay type: cell-based, human adenovirus (HAdV5); details: 10-fold IC50 concentration; TCID50/ml compound vs. DMSO; A549 cells; 48 h; MOI 100 vp/cell
# Protocol: A549 cells (1.5 × 10^5 cells/well in a 24-well plate) were incubated 24 h in 500 μL of complete DMEM and they were infected with wild-type HAdV5 (MOI 100 vp/cell) when more than 90% of confluency was observed. Infected cells were incubated for 48 h at 37°C in 500 μL of either complete DMEM containing 10-fold IC50 concentration of compounds obtained in the plaque assay or the same volume of DMSO (positive control). After 48 h, the cells were harvested and subjected to three rounds of freeze/thaw. Serial dilutions of the clarified lysates were titrated against A549 cells (3 × 10^4 cells/well in a 96-well plate) and TCID50 values were calculated using an end-point dilution method ([Reed and Muench, 1938]).
# HCMV = test: Impact on HCMV replication (qPCR of HCMV DNA in HFF); assay type: cell-based, human cytomegalovirus; details: 2-fold IC50 (HAdV plaque assay), 72 h
# Protocol: To test the anti-HCMV activity of these rotenolone-related compounds, human foreskin fibroblasts (HFF; ATCC, Manassas, VA) were seeded in a 24-well plate (8.3 × 10^4 cells/well), infected with HCMV (MOI 0.05 vp/cell), and incubated in complete DMEM in the presence of either 2-fold IC50 concentration of each compound obtained in the plaque assay against HAdV or the same volume of DMSO (positive control) in duplicate. The cells were incubated for 72 h at 37°C and 5% CO2 and HCMV DNA was purified from the cell lysate using E.Z.N.A Tissue DNA Kit (Omega Biotek, Norcross, GA, USA) following the manufacturer’s instructions. The qPCR primers, conditions, and protocols were the same as previously reported ([Mazzotta et al., 2020b]).
# HAdV5-GFP [3] = test: microbe, parasite or virus in culture; assay type: cell-based, human adenovirus (HAdV5); details: HAdV5-GFP; 293β5 cells; MOI 0.06 vp/cell; 7 days; read-out: IC50 plaque assay
# Protocol: Compounds were tested using low MOI infections (0.06 vp/cell), initially at concentrations of 10 μM and subsequently in a dose-response assay ranging from 10 μM to 2.44 nM in a plaque assay. Briefly, 293β5 cells were seeded in 6-well plates at a density of 1 × 10^6 cells per well in duplicate for each condition. When the cells reached 80%–90% confluency, they were infected with HAdV5-GFP and rocked for 2 h at 37°C. After the incubation, the inoculum was removed and the cells were washed once with PBS. Cells were then carefully overlaid with equal parts of 4 mL/well 1.6% ([…]) Difco Agar Noble (Becton, Dickinson & Co., Sparks, MD, USA) and 2× Eagle’s Minimum Essential Medium (EMEM; BioWhittaker) supplemented with 2×penicillin/streptomycin, 2× L-glutamine, and 10% FBS. The mixture also contained the compounds in the concentration ranges described above. Following incubation for 7 days at 37°C, plates were scanned with a Typhoon FLA 9000 imager (GE Healthcare Life Sciences) and the formed plaques were quantified with ImageJ ([Schneider et al., 2012]). Plaque counting was performed to calculate the 50% inhibitory concentration (IC50) of each compound using the statistical software GraphPad Prism 6.
# HAdV5-GFP [4] = test: Initial rapid screening, HAdV5-mediated GFP expression in A549 cells; assay type: cell-based, human adenovirus (HAdV5); details: 50 µM, 2,000 vp/cell, 48 h
# Protocol: An initial rapid screening was performed using human A549 cells (3 × 10^5 cells/well) infected with HAdV5-GFP with a multiplicity of infection (MOI) of 2,000 vp/cell in the presence of 50 μM of the candidate antiviral compounds. Briefly, a standard infection curve was generated in parallel by infecting cells in the absence of compounds using serial two-fold dilutions of virus. Cells, virus and compounds were incubated for 48 h at 37°C and 5% CO2. Infection, as measured by HAdV5-mediated GFP expression, was analyzed using a Typhoon 9410 imager (GE Healthcare Life Sciences), and quantified with ImageQuantTL (GE Healthcare Life Sciences). All reactions were done in triplicate.
# Chain of p53/MDM2 complex (P04637 whole entry): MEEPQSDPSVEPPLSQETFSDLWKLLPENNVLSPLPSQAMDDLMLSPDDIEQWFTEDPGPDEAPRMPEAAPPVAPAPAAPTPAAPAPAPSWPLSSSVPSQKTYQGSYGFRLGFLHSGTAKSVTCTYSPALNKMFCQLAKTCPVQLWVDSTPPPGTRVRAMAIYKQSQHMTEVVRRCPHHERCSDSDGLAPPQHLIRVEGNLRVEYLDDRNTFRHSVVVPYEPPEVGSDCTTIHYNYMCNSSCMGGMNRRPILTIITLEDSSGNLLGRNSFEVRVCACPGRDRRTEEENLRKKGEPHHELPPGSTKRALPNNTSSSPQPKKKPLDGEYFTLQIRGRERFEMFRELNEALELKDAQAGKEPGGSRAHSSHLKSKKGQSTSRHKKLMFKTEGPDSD
# Chain of p53/MDM2 complex (Q00987 whole entry, further chain): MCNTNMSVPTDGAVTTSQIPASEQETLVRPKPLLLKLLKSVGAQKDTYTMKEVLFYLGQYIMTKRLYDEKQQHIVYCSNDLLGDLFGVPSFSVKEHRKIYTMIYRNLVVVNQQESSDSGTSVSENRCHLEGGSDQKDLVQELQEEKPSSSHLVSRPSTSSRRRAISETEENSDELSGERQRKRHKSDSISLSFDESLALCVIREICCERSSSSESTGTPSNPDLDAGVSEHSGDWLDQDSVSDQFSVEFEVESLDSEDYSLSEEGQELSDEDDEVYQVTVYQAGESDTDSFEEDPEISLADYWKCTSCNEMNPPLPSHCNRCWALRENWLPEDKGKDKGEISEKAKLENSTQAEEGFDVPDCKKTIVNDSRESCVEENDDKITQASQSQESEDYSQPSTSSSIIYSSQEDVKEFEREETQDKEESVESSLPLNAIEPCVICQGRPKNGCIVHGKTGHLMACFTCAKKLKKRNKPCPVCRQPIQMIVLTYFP
substance,measurement,setting,value
"(2R,6S,6aR,12aS)-8,9-dimethoxy-2-(prop-1-en-2-yl)-1,2,6,6a,12,12a-hexahydrochromeno[3,4-b]furo[2,3-h]chromen-6-ol [Rotenolone]",HPG incorporation,"HAdV5; compared with a control without α-sarcin, 10-fold IC50, independent of virus concentration",approximately 30%
same,attenuation of HAdV-mediated endosomolysis,HAdV5; α-sarcin assay,did not attenuate
same,CC50,A549 cells,17.1 ± 0.4 µM
same,"concentration of p53/MDM2 complexes, high vs low cell density",p53/MDM2 complex,significant difference
same,accessibility of HAdV genomes to the nucleus,wild-type HAdV5 [1],did not block
same,Virus Yield Fold-reduction,wild-type HAdV5 [2],1.3E+04 ± 4582.5 fold
same,inhibition of HCMV replication,HCMV,85.2%
same,IC50,HAdV5-GFP [3],0.03 µM
same,inhibition of HAdV5-GFP transgene expression,HAdV5-GFP [4],100%
